According to the supplement of paper PMC11061612:

Key:
[1] = system: OS-RC-2 (Kidney Carcinoma); test: Bliss excess, mean over the matrix (fraction); higher = more synergy
Method in brief: (§1)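 After 24 hours at 37°C and 5% CO2 in 1536-well plates, cells in DMEM/F12 or RPMI plus 10% FBS received two-drug dose matrices for 72 hours. Viability came from CellTiter-Glo 2.0 luminescence and was scaled as inhibition, anchored at 0 by vehicle wells and at 1 by blank wells. Combination Emax is taken as the second-highest inhibition in the matrix, and Bliss excess as the observed combination effect less EA + EB − EA·EB, with EA and EB the single-agent effects.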

[2] = system: NCI-H2141 (Small Cell Lung Carcinoma); test: as above
Method in brief: as §1

[3] = system: PANC-10-05 (Pancreatic Carcinoma); test: as above
Method in brief: as §1

[4] = system: NCI-H2066 (Squamous Cell Lung Carcinoma); test: combination Emax (second highest fraction inhibited in the dose matrix, 72 h); higher = more inhibition; extreme values may be limits of the assay
Method in brief: as §1

[5] = system: COLO-320-HSR (Colorectal Carcinoma); test: as above
Method in brief: as §1

PA-1 (Ovarian Carcinoma) = test: as above
Method in brief: as §1

[6] = system: CAL-29 (Bladder Carcinoma); test: as above
Method in brief: as §1

FU97 (Gastric Carcinoma) = test: as above
Method in brief: as §1

[7] = system: CCK-81 (Colorectal Carcinoma); test: as above
Method in brief: as §1

[8] = system: COLO-824 (Breast Carcinoma); test: as above
Method in brief: as §1

[9] = system: NCI-H1693 (Lung Adenocarcinoma); test: as above
Method in brief: as §1

[10] = system: COR-L311 (Small Cell Lung Carcinoma); test: as above
Method in brief: as §1

[11] = system: MDST8 (Colorectal Carcinoma); test: as above
Method in brief: as §1

[12] = system: TT (Thyroid Gland Carcinoma); test: as above
Method in brief: as §1

LN-405 (Glioblastoma) = test: as above
Method in brief: as §1

[13] = system: KARPAS-422 (B-Cell Non-Hodgkin's Lymphoma); test: as above
Method in brief: as §1

IGR-37 (Melanoma) = test: as above
Method in brief: as §1

[14] = system: SISO (Cervical Carcinoma); test: as above
Method in brief: as §1

[15] = system: NCI-H1581 (Non-Small Cell Lung Carcinoma); test: as above
Method in brief: as §1

[16] = system: VCaP (Prostate Carcinoma); test: as above
Method in brief: as §1
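For Bliss excess, mean over the matrix in this document: after 72 h of two-drug dosing.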

## NC1(C(=O)N[C@@H](CCO)c2ccc(Cl)cc2)CCN(c2ncnc3[nH]ccc23)CC1 [Capivasertib] + CC(C)n1c(=O)n(C)c2cnc3cc(F)c(-c4ccc(OCCCN5CCCCC5)nc4)cc3c21 [AZD1390] (first compound max 10 µM, 7x7, partner max 0.3 µM)
[1]
  Bliss excess: -0.0779
[2]
  Bliss excess: -0.0051
[3]
  Bliss excess: -0.101
[4]
  combination Emax: 0.553
[5]
  combination Emax: 0.172
PA-1 (Ovarian Carcinoma)
  combination Emax: 0.753
[6]
  combination Emax: 0.337
FU97 (Gastric Carcinoma)
  combination Emax: 0.361
[7]
  combination Emax: 0.327
[8]
  combination Emax: 0.464
[9]
  combination Emax: 0.315
[10]
  combination Emax: 0.685
[11]
  combination Emax: 0.363
[12]
  combination Emax: 0.425
LN-405 (Glioblastoma)
  combination Emax: 0.489
[13]
  combination Emax: 0.507
IGR-37 (Melanoma)
  combination Emax: 0.447
[14]
  combination Emax: 0.269
[15]
  combination Emax: 0.129
[16]
  combination Emax: 0.458

## NC1(C(=O)N[C@@H](CCO)c2ccc(Cl)cc2)CCN(c2ncnc3[nH]ccc23)CC1 [Capivasertib] + CC(=O)c1c(C)c2cnc(Nc3ccc(N4CCNCC4)cn3)nc2n(C2CCCC2)c1=O [Palbociclib] (first compound max 10 µM, 7x7, partner max 10 µM)
[1]
  Bliss excess: 0.0249
[2]
  Bliss excess: -0.0936
[3]
  Bliss excess: -0.0526
[4]
  combination Emax: 0.507
[5]
  combination Emax: 0.263
PA-1 (Ovarian Carcinoma)
  combination Emax: 0.909
[6]
  combination Emax: 0.479
FU97 (Gastric Carcinoma)
  combination Emax: 0.358
[7]
  combination Emax: 0.337
[8]
  combination Emax: 0.612
[9]
  combination Emax: 0.485
[10]
  combination Emax: 0.68
[11]
  combination Emax: 0.656
[12]
  combination Emax: 0.447
LN-405 (Glioblastoma)
  combination Emax: 0.577
[13]
  combination Emax: 0.771
IGR-37 (Melanoma)
  combination Emax: 0.396
[14]
  combination Emax: 0.201
[15]
  combination Emax: 0.373
[16]
  combination Emax: 0.514

## CC1(C)CCC(CN2CCN(c3ccc(C(=O)NS(=O)(=O)c4ccc(NCC5CCOCC5)c([N+](=O)[O-])c4)c(Oc4cnc5[nH]ccc5c4)c3)CC2)=C(c2ccc(Cl)cc2)C1 [Venetoclax] + CN(C)CCCOc1ccc(-c2ccc3ncc4c(c3c2)n(C2CCOCC2)c(=O)n4C)cn1 [AZD0156] (first compound max 1 µM, 7x7, partner max 1 µM)
[1]
  Bliss excess: -0.0456
[2]
  Bliss excess: -0.0183
[3]
  Bliss excess: -0.079
[4]
  combination Emax: 0.156
[5]
  combination Emax: 0.198
PA-1 (Ovarian Carcinoma)
  combination Emax: 0.3
[6]
  combination Emax: 0.25
FU97 (Gastric Carcinoma)
  combination Emax: 0.462
[7]
  combination Emax: 0.244
[8]
  combination Emax: 0.783
[9]
  combination Emax: 0.221
[10]
  combination Emax: 0.604
[11]
  combination Emax: 0.199
[12]
  combination Emax: 0.594
LN-405 (Glioblastoma)
  combination Emax: 0.306
[13]
  combination Emax: 0.873
IGR-37 (Melanoma)
  combination Emax: 0.503
[14]
  combination Emax: 0.148
[15]
  combination Emax: 0.182
[16]
  combination Emax: 0.196

## Cn1cnc2c(F)c(Nc3ccc(Br)cc3Cl)c(C(=O)NOCCO)cc21 [Selumetinib] + C=CCn1c(=O)c2cnc(Nc3ccc(N4CCN(C)CC4)cc3)nc2n1-c1cccc(C(C)(C)O)n1 [AZD1775] (first compound max 10 µM, partner max 1 µM)
[1]
  Bliss excess: -0.023
[2]
  Bliss excess: -0.0682
[3]
  Bliss excess: -0.0898
[4]
  combination Emax: 0.351
[5]
  combination Emax: 0.589
PA-1 (Ovarian Carcinoma)
  combination Emax: 0.875
[6]
  combination Emax: 0.654
FU97 (Gastric Carcinoma)
  combination Emax: 0.364
[7]
  combination Emax: 0.885
[8]
  combination Emax: 0.76
[9]
  combination Emax: 0.428
[10]
  combination Emax: 0.504
[11]
  combination Emax: 0.609
[12]
  combination Emax: 0.305
LN-405 (Glioblastoma)
  combination Emax: 0.148
[13]
  combination Emax: 0.623
IGR-37 (Melanoma)
  combination Emax: 0.878
[14]
  combination Emax: 0.539
[15]
  combination Emax: 0.639
[16]
  combination Emax: 0.509

## CS(=O)(=O)CCNCc1ccc(-c2ccc3ncnc(Nc4ccc(OCc5cccc(F)c5)c(Cl)c4)c3c2)o1 [Lapatinib] + C[C@@H](Oc1cc(-c2cnn(C3CCNCC3)c2)cnc1N)c1c(Cl)ccc(F)c1Cl [Crizotinib] (first compound max 10 µM, 7x7, partner max 10 µM)
[1]
  Bliss excess: -0.0186
[2]
  Bliss excess: -0.0758
[3]
  Bliss excess: -0.109
[4]
  combination Emax: 0.58
[5]
  combination Emax: 0.894
PA-1 (Ovarian Carcinoma)
  combination Emax: 1
[6]
  combination Emax: 0.952
FU97 (Gastric Carcinoma)
  combination Emax: 0.81
[7]
  combination Emax: 0.975
[8]
  combination Emax: 0.94
[9]
  combination Emax: 0.883
[10]
  combination Emax: 0.924
[11]
  combination Emax: 0.738
[12]
  combination Emax: 0.409
LN-405 (Glioblastoma)
  combination Emax: 0.493
[13]
  combination Emax: 0.96
IGR-37 (Melanoma)
  combination Emax: 0.906
[14]
  combination Emax: 0.626
[15]
  combination Emax: 0.678
[16]
  combination Emax: 0.465

## Cc1nc(Nc2ncc(C(=O)Nc3c(C)cccc3Cl)s2)cc(N2CCN(CCO)CC2)n1 [Dasatinib] + CC(=O)Nc1cccc(-n2c(=O)n(C3CC3)c(=O)c3c(Nc4ccc(I)cc4F)n(C)c(=O)c(C)c32)c1 [Trametinib] (first compound max 2 µM, 7x7, partner max 1 µM)
[1]
  Bliss excess: -0.0396
[2]
  Bliss excess: -0.0362
[3]
  Bliss excess: 0.0735
[4]
  combination Emax: 0.402
[5]
  combination Emax: 0.15
PA-1 (Ovarian Carcinoma)
  combination Emax: 0.936
[6]
  combination Emax: 0.625
FU97 (Gastric Carcinoma)
  combination Emax: 0.422
[7]
  combination Emax: 0.641
[8]
  combination Emax: 0.232
[9]
  combination Emax: 0.699
[10]
  combination Emax: 0.0652
[11]
  combination Emax: 0.781
[12]
  combination Emax: 0.441
LN-405 (Glioblastoma)
  combination Emax: 0.468
[13]
  combination Emax: 0.469
IGR-37 (Melanoma)
  combination Emax: 0.838
[14]
  combination Emax: 0.157
[15]
  combination Emax: 0.552
[16]
  combination Emax: 0.0632
